Results on five compounds are retold here after PMC4140284, “Human UTY(KDM6C) Is a Male-specific N^ϵ-Methyl Lysyl Demethylase” (The Journal of Biological Chemistry, 2014).

One experiment concerns KDM6. Kind of experiment: Demethylation of histone peptide by 1H NMR, KDM6. The experiment is classed as biochemical, human. The settings on record: KDM6 catalyzed. The text has this:
The total echo time was 48 ms.

Another experiment has as its target T1, KDM6B (Homo sapiens, UniProt O15054).
T1 construct: KDM6B and KDM6A plasmids were used as described previously; made in house; host or cells: Escherichia coli BL21 (DE3)
Kind of experiment: Demethylation of histone peptide by MALDI-TOF MS, KDM6B. The class given is biochemical. Particulars: KDM6B positive control. On the procedure: (§1) Reaction components were premixed in two batches ((i) enzyme, Fe(II), and ascorbate and (ii) 2OG and peptide), and reactions were initiated by mixing the enzyme and substrate mix. Reactions were incubated at 37 °C for the indicated times before being quenched with methanol in a 1:1 ratio.
(§2) Product formation was assessed by MALDI-TOF MS. One microliter of quenched reaction was mixed with 1 μl of α-cyano-4-hydroxycinnamic acid and spotted onto a MALDI-TOF plate for analysis using a MALDI micro-MX mass spectrometer (Waters) in reflectron positive ion mode with pulse voltage 1250 V, detector voltage 2750 V, and mass suppression 1000 Da. Data were analyzed using MassLynx version 4.0. For inhibitor assays, inhibition levels were measured relative to an inhibitor-free reaction.
(§3) With catalytically active UTY(KDM6C) in hand, we then investigated whether a longer UTY(KDM6C) construct (residues 818–1347, herein UTY(KDM6C)) can act as a KDM. UTY(KDM6C) was incubated for 1 h at 37 °C with histone peptide fragments corresponding to known mono-, di-, and tri- lysine methylation sites of histone 3 (at Lys^4, Lys^9, Lys^27, and Lys^36) and histone 4 (at Lys^20) (Table 3). Demethylation was assessed by a mass spectrometric (MS) assay with mass shifts of −14 and −28 Da, corresponding to mono- and didemethylation, respectively. […]

For experiment [1], the target named is T2, KDM6A (Homo sapiens, UniProt O15550).
T2 construct: KDM6B and KDM6A plasmids were used as described previously; made in house; host or cells: Escherichia coli BL21 (DE3)
T2 sequence (O15550 whole entry): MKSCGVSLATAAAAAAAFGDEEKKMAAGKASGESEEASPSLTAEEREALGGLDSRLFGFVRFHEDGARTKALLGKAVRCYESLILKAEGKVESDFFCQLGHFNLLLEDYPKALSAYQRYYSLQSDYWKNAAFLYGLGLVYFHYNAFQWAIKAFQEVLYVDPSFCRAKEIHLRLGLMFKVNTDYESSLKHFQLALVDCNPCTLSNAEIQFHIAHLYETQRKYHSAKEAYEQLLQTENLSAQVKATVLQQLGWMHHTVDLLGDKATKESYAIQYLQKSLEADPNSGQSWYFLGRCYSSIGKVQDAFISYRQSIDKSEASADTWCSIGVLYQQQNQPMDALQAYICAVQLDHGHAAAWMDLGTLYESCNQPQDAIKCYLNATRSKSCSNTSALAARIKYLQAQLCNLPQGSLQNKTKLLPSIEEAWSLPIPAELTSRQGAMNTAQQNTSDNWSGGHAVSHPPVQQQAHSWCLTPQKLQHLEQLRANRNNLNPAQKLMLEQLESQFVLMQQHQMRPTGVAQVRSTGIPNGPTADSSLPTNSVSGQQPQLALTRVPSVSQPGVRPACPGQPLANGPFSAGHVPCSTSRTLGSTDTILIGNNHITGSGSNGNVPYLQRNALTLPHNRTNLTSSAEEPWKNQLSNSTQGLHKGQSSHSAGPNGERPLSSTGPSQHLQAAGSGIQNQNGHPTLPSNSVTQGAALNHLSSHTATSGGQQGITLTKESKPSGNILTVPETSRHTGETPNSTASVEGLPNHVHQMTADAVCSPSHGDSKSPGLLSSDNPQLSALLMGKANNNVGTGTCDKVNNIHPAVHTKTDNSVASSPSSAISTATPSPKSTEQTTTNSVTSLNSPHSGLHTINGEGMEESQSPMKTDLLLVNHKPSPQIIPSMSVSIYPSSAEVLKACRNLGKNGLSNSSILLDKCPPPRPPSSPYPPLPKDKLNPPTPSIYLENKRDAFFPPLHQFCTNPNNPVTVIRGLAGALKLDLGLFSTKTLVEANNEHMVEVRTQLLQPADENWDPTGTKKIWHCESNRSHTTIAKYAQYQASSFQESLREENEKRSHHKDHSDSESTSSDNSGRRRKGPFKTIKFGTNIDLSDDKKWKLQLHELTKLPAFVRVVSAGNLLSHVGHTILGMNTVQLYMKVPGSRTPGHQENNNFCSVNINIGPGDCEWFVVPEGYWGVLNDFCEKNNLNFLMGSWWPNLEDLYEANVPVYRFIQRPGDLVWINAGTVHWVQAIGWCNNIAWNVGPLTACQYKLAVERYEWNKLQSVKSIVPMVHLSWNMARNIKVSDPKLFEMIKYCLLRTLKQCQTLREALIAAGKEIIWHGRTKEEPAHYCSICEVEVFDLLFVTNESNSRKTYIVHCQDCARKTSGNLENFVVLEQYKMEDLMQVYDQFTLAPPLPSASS
Put plainly: Demethylation of histone peptide by MALDI-TOF MS, KDM6A. The class given is biochemical. The settings on record: KDM6A positive control. The procedure: as §1, §2, §3

Experiment [2] relates to UTY(KDM6C). Kind of experiment: Demethylation of histone peptides by MALDI-TOF MS, UTY(KDM6C). The experiment is classed as biochemical, human. Particulars: UTY(KDM6C) 818–1347, 1 h at 37 °C. On the procedure: as §1, §2
With catalytically active UTY(KDM6C) in hand, we then investigated whether a longer UTY(KDM6C) construct (residues 818–1347, herein UTY(KDM6C)) can act as a KDM. UTY(KDM6C) was incubated for 1 h at 37 °C with histone peptide fragments corresponding to known mono-, di-, and tri- lysine methylation sites of histone 3 (at Lys^4, Lys^9, Lys^27, and Lys^36) and histone 4 (at Lys^20) (Table 3). Demethylation was assessed by a mass spectrometric (MS) assay with mass shifts of −14 and −28 Da, corresponding to mono- and didemethylation, respectively. […] The predominant product was H3K27Me2, resulting from a single demethylation; a smaller amount of H3K27Me1 was observed as a result of didemethylation (Fig. 3C). Demethylation was dependent on the presence of Fe(II)/2OG.

Experiment [3] concerns partially phosphorylated UTY(KDM6C). Put plainly: 2OG turnover by 1H NMR, partially phosphorylated UTY(KDM6C). The class given is biochemical, human. Particulars: 10 μM, in 28 min.
Experiment [4] has as its system UTY(KDM6C) dephosphorylated in vitro using λ-phosphatase. Put plainly: 2OG turnover by 1H NMR, dephosphorylated UTY(KDM6C). The experiment is classed as biochemical, human. The settings on record: UTY(KDM6C) dephosphorylated with λ-phosphatase, 10 μM, in 28 min.
Experiment [5] relates to UTY(KDM6C). Kind of experiment: Inhibition of H3K27Me3 peptide demethylation, UTY(KDM6C). The experiment is classed as biochemical, human. Particulars: 10 μM inhibitor, 15 min preincubation, 20 min at 37 °C. On the procedure: as §1
(§4) For inhibition assays, the same enzyme/Fe(II)/ascorbate mixture was preincubated with 10 μM inhibitor for 15 min before the reaction was initiated by the addition of the peptide substrate solution. Reactions were quenched with 1:1 methanol after 20 min at 37 °C.
as §2

Experiment [6] has as its target T2, KDM6A. Kind of experiment: Inhibition of H3K27Me3 peptide demethylation, KDM6A. The experiment is classed as biochemical. The settings on record: 10 μM inhibitor, 15 min preincubation, 20 min at 37 °C. On the procedure: as §1, §4, §2
Experiment [7] concerns H3K27Me3 levels in HeLa cells. Kind of experiment: Immunofluorescence of global H3K27Me3 levels on overexpression in HeLa cells. The class given is cell-based. Particulars: exogenous overexpression in HeLa cells. The procedure:
For cell-based experiments, HEK 293T and HeLa cells were cultured at 37 °C and 5% CO2 in DMEM (Lonza) supplemented with 10% fetal bovine serum (FBS) (Invitrogen) and 1% Glutamax (Invitrogen). For microscopy, HeLa cells were seeded into 96-well clear bottom optical grade plates (BD Biosciences) at 8000 cells/well and allowed to settle overnight. Transfections were carried out the next day. For each well, 0.1 μg of plasmid and 0.25 μl of Lipofectamine 2000 (Invitrogen) were each incubated in 25 μl of Opti-MEM (Invitrogen) for 5 min at room temperature. The two solutions were then mixed gently but thoroughly and incubated for 20 min at room temperature. The mixture was added to the cells in 50 μl of fresh medium. Four hours later, the medium was changed, and the cells were incubated for a further 24 h before fixation. Cells were fixed in 4% (v/v) aqueous formaldehyde for 20 min, permeabilized in 0.5% Triton X-100 in phosphate-buffered saline (PBS) for 8 min, and blocked in 3% (w/v) FBS in PBS for 1 h with a PBS wash between each step. The primary antibodies were then added to the cells in blocking solution. […] Luciferase activity was measured using the Promega Dual-Luciferase Reporter Assay System on a Promega GloMax 20/20 luminometer. Readings were normalized to a Renilla luciferase control that was co-transfected with all samples. […]

T1 sequence (O15054 whole entry): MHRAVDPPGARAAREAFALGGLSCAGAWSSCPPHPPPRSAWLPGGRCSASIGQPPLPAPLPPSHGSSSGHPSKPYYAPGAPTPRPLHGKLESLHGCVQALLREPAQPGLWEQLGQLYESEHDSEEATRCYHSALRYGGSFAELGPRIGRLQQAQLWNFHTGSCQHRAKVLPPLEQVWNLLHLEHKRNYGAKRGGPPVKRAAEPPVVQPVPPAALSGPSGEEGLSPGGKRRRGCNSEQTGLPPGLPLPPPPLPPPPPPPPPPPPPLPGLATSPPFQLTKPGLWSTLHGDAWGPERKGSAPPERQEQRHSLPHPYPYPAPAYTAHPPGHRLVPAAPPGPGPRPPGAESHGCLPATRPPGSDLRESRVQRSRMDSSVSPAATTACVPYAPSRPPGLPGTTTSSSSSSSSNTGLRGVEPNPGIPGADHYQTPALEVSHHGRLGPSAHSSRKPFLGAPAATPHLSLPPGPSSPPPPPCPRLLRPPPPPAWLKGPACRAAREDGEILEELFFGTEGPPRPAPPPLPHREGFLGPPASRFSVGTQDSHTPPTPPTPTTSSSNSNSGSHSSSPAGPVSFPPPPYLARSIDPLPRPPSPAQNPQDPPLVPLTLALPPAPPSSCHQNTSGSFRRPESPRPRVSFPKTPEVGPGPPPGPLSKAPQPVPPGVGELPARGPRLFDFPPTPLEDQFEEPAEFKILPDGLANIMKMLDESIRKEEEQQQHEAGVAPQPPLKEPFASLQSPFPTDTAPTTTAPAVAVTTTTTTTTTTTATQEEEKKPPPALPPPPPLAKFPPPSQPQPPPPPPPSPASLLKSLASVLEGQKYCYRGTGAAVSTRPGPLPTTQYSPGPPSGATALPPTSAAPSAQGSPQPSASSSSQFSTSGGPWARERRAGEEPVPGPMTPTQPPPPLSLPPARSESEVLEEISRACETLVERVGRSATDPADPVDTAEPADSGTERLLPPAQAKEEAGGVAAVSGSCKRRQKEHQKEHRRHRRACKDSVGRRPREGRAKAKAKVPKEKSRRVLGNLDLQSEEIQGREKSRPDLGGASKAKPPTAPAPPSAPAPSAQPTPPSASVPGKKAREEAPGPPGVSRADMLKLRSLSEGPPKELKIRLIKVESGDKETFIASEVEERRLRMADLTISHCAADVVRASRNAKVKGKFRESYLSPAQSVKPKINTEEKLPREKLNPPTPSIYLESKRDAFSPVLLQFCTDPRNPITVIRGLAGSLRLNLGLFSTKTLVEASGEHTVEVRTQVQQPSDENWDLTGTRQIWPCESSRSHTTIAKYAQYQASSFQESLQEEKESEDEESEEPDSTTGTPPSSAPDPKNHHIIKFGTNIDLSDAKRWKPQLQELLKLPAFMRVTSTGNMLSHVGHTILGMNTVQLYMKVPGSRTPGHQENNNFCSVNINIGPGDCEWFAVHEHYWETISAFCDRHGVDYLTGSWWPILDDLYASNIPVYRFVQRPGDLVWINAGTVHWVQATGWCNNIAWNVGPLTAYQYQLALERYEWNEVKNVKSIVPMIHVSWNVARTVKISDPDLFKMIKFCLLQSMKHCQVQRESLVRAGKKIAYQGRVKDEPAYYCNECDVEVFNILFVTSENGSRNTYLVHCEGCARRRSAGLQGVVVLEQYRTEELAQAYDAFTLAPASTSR

With “GGKAPRKQLATKAARKMe3SAPATGGV [24-residue histone peptide containing H3K27Me3]”, the demethylation entry in the experiment on KDM6 is listed as “KDM6 catalyzed demethylation”.
In the case of “GGKAPRKQLATKAARKMe3SAPATGG [23-residue histone peptide containing H3K27Me3 (histone 3, 12–34)]”, the demethylation entry on KDM6B is listed as “demethylation was observed”; on KDM6A [1], “demethylation was observed”; with UTY(KDM6C) [2] it was “catalyzes the demethylation”; with UTY(KDM6C) [2] (listed as H3K27Me3 peptide (histone 3, 12–34)), “demethylation was observed”. Also, the minor demethylation product entry with UTY(KDM6C) [2] (didemethylation, smaller amount) is recorded as “H3K27Me1”. Besides, the predominant demethylation product entry in the experiment with UTY(KDM6C) [2] (single demethylation) is listed as “H3K27Me2”.
In the case of `O=C(O)CCC(=O)C(=O)O` [2OG, 2-oxoglutarate], the succinate produced in experiment [3] and in [4] was 7 ± 0.5 nmol in each case.
Regarding `O=C(O)CCNc1cc(N2CCc3ccccc3CC2)nc(-c2ccccn2)n1` [GSK-J1], the “potency rank among nine inhibitors” value in the experiment with UTY(KDM6C) [5] and at KDM6A [6] was “most potent inhibitor” throughout. In addition, the inhibition of demethylation entry with UTY(KDM6C) [5] (H3K27Me3 peptide, MALDI MS) is reported as “inhibition of UTY(KDM6C) activity by GSK-J1 was observed”.
Turning to “FL WT KDM6B: full-length wild type KDM6B, positive control”, the “change in global H3K27Me3 level” value in [7] was “a decrease was observed”.
